Assay results taken from patent US8653257B2, “Dibenzothiazepine derivatives and uses thereof—424” (Astrazeneca AB, priority 2008, dated 2014).

Experiments:
[1] = target: dopamine D2s receptor (Homo sapiens (Human), UniProt P14416); experiment: D2 antagonist GTPγS functional assay; type: biochemical; conditions: antagonist mode
Experimental: In vitro experimental assays can generally be carried out as described herein. Briefly, CHO-K1 cells stably transfected with the dopamine D2s receptor can be used in the experiments and maintained in Ham's F12 culture medium supplemented with 2 mM L-glutamine, 10% FBS, and 500 μg/ml Hygromycin.
GTPgS assay can be performed substantially as described by Lazareno, Methods in Molecular Biology, 1999, 106, 231-245. Antagonist activity of compounds can be determined by the ability of test compounds to block dopamine-stimulated [^35S]-GTPγS binding to cell membranes from D2s stably-transfected CHO cells.

[2] = system: D-Amphetamine-induced Hyperlocomotor Activity; experiment: D-Amphetamine-induced hyperlocomotor activity (LMA) in habituated rat model; type: in vivo, male Long Evans rats; conditions: 30 mg/kg and 60 mg/kg (sc)
Experimental: Studies in vivo can be used to determine the antipsychotic effect and are generally carried out as follows. Briefly, D-Amphetamine-induced Hyperlocomotor Activity (LMA) in a Habituated Rat Model can be assessed in male Long Evans rats using a paradigm that includes a habituation phase followed by administration of 1 mg/kg D-amphetamine. Animals can be allowed to acclimatize to the testing room for 1 hour before being weighed and placed into activity chambers. Thirty minutes after LMA measurement is begun, animals can be briefly removed, dosed via the sub-cutaneous route (s.c.) with vehicle or test drug at different doses and returned to the chambers. After a further 30 minutes, animals can again be removed and dosed with vehicle or D-amphetamine at 1 mg/kg (s.c.). After returning the animals to the activity chambers, LMA can be assessed for a further 60 minutes. Haloperidol (0.1 mg/kg dissolved in H2O) can be administered 15 minutes prior to D-amphetamine via the s.c. route. Statistical analysis can be made of total distance traveled after D-amphetamine administration using ANOVA and Tukey's post hoc analysis where appropriate. All values can be expressed as Mean and SD.

[3] = system: Conditioned Avoidance Responding; experiment: Conditioned avoidance responding (CAR) assay; type: in vivo, Male Long-Evans rats; conditions: 30 mg/kg and 60 mg/kg (sc), rat
Experimental: Male Long-Evans rats can be trained to traverse to the opposite side of a standard shuttle cage following presentation of an auditory and visual stimulus to avoid delivery of electric shock to the floor of the cage. Daily sessions can consist of up to 80 trials. If a shock is delivered, animals have the opportunity to escape the shock by traversing to the opposite side of the cage. Drug can be administered (via s.c. or p.o. route) 60 minutes prior to testing and the percentage of trials in which shock is avoided and escaped can be recorded.

[4] = target: H1 receptor (Homo sapiens (Human), UniProt P35367); experiment: H1 receptor binding; parameters: species or system Hu; conditions: one average result
Description: The H1 receptor binding method can be carried out in accordance with De Backer et al., Biochem. Biophys. Res. Commun., 1993, 197(3), 1601.

dopamine D2s receptor, sequence (P14416 other isoform, or with tags, fused parts or gaps): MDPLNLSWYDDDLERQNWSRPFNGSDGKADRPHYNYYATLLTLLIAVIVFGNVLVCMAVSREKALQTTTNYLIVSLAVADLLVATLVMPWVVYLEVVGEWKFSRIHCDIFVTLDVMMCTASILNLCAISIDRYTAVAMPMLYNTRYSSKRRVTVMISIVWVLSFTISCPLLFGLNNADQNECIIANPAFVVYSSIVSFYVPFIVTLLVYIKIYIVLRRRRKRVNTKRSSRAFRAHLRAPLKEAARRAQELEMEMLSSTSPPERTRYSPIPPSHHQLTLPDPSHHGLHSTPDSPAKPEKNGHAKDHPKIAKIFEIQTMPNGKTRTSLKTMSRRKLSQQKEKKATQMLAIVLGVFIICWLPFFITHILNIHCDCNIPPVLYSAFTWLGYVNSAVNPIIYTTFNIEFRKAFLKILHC
H1 receptor, sequence (P35367 whole entry): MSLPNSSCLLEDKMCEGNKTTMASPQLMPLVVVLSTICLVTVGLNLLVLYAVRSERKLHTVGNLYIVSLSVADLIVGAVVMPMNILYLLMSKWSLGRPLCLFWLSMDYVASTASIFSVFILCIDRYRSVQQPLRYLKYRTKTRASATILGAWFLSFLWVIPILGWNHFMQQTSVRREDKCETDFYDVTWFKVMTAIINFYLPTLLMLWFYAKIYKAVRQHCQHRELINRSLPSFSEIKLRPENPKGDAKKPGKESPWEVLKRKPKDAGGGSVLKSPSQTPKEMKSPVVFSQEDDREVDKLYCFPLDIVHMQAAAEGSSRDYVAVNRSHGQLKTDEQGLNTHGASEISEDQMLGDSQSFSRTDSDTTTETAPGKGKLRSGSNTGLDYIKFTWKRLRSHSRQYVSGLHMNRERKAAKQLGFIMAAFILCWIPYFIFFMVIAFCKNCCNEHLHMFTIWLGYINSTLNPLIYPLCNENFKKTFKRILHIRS

| SMILES | D2 Ant GTPγS Top Effect [1] | Ki [4] [nM] | activity in D-amphetamine-induced hyperlocomotor activity [2] | activity in conditioned avoidance responding [3] |
| --- | --- | --- | --- | --- |
| CN1CCN(C2=Nc3ccccc3Sc3ccc(F)cc32)CC1 [2-Fluoro-11-(4-methyl-piperazin-1-yl)-dibenzo[b,f][1,4]thiazepine] | 100 | – | – | – |
| CN1CCN(C2=Nc3ccccc3Sc3ccc(Cl)cc32)CC1 [2-Chloro-11-(4-methyl-piperazin-1-yl)-dibenzo[b,f][1,4]thiazepine] | 100 | – | – | – |
| Clc1ccc2c(c1)C(N1CCNCC1)=Nc1ccccc1S2 [2-Chloro-11-piperazin-1-yl-dibenzo[b,f][1,4]thiazepine] | 100 | – | – | – |

Now from value to compound, other results behind:

| D2 Ant GTPγS Top Effect [1] | Ki [4] [nM] | SMILES | activity in D-amphetamine-induced hyperlocomotor activity [2] | activity in conditioned avoidance responding [3] |
| --- | --- | --- | --- | --- |
| 97 | ~7.1 | Fc1ccc2c(c1)C(N1CCNCC1)=Nc1ccccc1S2 [Example 1, 2-fluoro-11-(piperazin-1-yl)dibenzo[b,f][1,4]thiazepine] | showed activity | showed activity |
| 89 | – | c1ccc2c(c1)N=C(N1CCNCC1)c1ccccc1S2 [11-Piperazin-1-yl-dibenzo[b,f][1,4]thiazepine] | – | – |
